Assay: Retinal concentration of angiostatic steroid after sub-Tenon drug depot in rabbit eyes
Format: in vivo
Details: drug depot on outer surface of sclera, slightly posterior of the equator, measured the day after the injection, New Zealand White rabbits
Source text: Sclera 16 and Tenon's capsule 34 define the exterior surface of the globe of eye 10. For treatment of ARMD, CNV, retinopathies, retinitis, uveitis, cystoid macular edema (CME), glaucoma, and other diseases or conditions of posterior segment 26, it is preferable to dispose a depot 38 of a specific quantity of an ophthalmically acceptable pharmaceutically active agent directly on the outer surface of sclera 16 and below Tenon's capsule 34. In addition, in cases of ARMD and CME it is most preferable to dispose depot 38 directly on the outer surface of sclera 16, below Tenon's capsule 34, and generally above macula 30. In a study using New Zealand White rabbits, a drug depot of 4,9(11)-Pregnadien-17α,21-diol-3,20-dione-21-acetate, an angiostatic steroid available from Steraloids, Inc. of Wilton, New Hampshire, was disposed directly on the outer surface of the sclera, below the Tenon's capsule, and slightly posterior of the equator of the rabbit eyes. […] Given the fact that the Tenon's capsule of a New Zealand White rabbit is very thin, these beneficial results are highly unexpected. It is important to note that Tenon's capsule 34 of human eye 10 is also very thin. […]

concentration of the angiostatic steroid, averaged over the entire retina, relative to a depot located below the conjunctiva but above the Tenon's capsule: about ten times greater
SMILES: CC(=O)OCC(=O)[C@@]1(O)CC[C@H]2[C@@H]3CCC4=CC(=O)CC[C@]4(C)C3=CC[C@@]21C [4,9(11)-Pregnadien-17α,21-diol-3,20-dione-21-acetate]

Source: patent US6413245B1, “Sub-tenon drug delivery” (Alcon Universal Ltd., priority 1999, dated 2002)
